SMILES strings stand for the structures.

The experiment concerns yeast tRNA^Phe (RNA, tRNA) GCGGAUUUAGCUCAGUUGGGAGAGCGCCAGACUGAAGAUCUGGAGGUCCUGUGUUCGAUCCACAGAAUUCGCACCA
Kind of experiment: inhibition of lead(II)-induced cleavage, gel. Particulars: 10 mM Mg2+, 1 mM NH4+, 0.5 mM Pb2+; 50% inhibition of Pb2+ cleavage; 50 mM Tris-HCl pH 7.5; RNA 2.4 μM.
As to `CN(C)c1ccc2cc3ccc(N(C)C)cc3[o+]c2c1`, the inhibition constant (Ki) was found to be 166 ± 42 µM. As for `CN(C)c1ccc2nc3ccc(N(C)C)cc3[s+]c2c1`, the figure is 98 ± 20 µM. The value for `CN(C)c1ccc2nc3ccc(N)cc3[s+]c2c1` was 52 ± 8.3 µM; that for `CNc1ccc2nc3ccc(=[N+](C)C)cc-3sc2c1` was 58 ± 28 µM.

Values taken from paper PMC5039424 (2016).
